{
  "source": "patent US11801246B2",
  "about": "“Methods of treating ischemic disease by administering an ATR kinase inhibitor” (East Tennessee State University Research Foundation, priority 2018, dated 2023)",
  "key": {"dividing SH-SY5Y cells": {"system": "dividing SH-SY5Y cells", "assay": "DNA damage signaling and AIF activation", "type": "cell-based, human", "conditions": "up to 8 hr, compared to controls; data not shown", "from_the_text": "A cell morphology-based assay was used to compare cells treated with ionomycin vs. the apoptosis-inducer camptothecin (CPT) (FIG. 4B, C). […] Importantly, cell death depended on NAD+ depletion and was calpain-independent; and ionomycin or glutamate induced little/no DNA damage signaling and AIF activation in dividing SH-SY5Y cells as compared to controls for up to 8 hr, although DNA damage did occur at 24 hr (data not shown)."}, "C57BL/6 mice": {"system": "C57BL/6 mice", "assay": "middle cerebral artery occlusion (MCAO) stroke model", "type": "in vivo, mouse", "description": "Adult mice injected i.p. with vehicle (A) over 3 d after a 30 min unilateral MCAO had larger infarcts (identified by GFAP+ astrocyte borders and more leukocyte (CD45) infiltration) in the brain at 7 d, than with ATR inhibitor (ATRi) VE-822 (B). (C) Quantification of infarct size as % of the contralateral side. Data are mean+SEM. N=4, 6, *p<0.05. […] (E) The number of neurons identified by the area of NeuN staining in the infarct was increased by VE-822 treatment. (F) With vehicle the striatum was essentially devoid of neurons. (G) In VE-822 treated mice rescued neurons often appeared around blood vessels (identified by αSMA). (H) Grid walk analysis of VE-822-treated and mock-treated MCAO mice.\n(A) VE-822-treated mice had fewer CD45+ infiltrating leukocytes in the infarct at 7 d after MCAO, as shown by area measurements. N=4, 6, **p<0.01. (B) Only in ATR inhibitor-treated mice, a sub-set of CD45+ cells were double-labeled with TUNEL (white arrows), which identifies DNA breaks in dying cells. (C) These cells included CD68+ microglia/macrophages as shown by split cells in an adjacent section (yellow arrows). Note the perivascular CD68+ cell at the wall of a blood vessel (BV, pink arrow). (D) Cleaved caspase-3 was present in CD45+ and CD68+ cells ([…] confocal slice). (E) The number of TUNEL+ nuclei in the cortex and striatum was higher with the ATR inhibitor treatment. (F) Some of the CD45 cells expressed ATR. (G) After MCAO, ATR expression was induced in PDGFRβ+ pericytes in the infarct. Yellow arrows indicate the cells shown by confocal on the right. Bottom confocal: ATR is seen in a CD13+ pericyte around a microvessel. […] Green arrows=healthy pericytes.\nAdult male C57BL/6 mice (10-12 weeks old; JAX Stock 000664, Jackson Labs) were anesthetized with Avertin and received a unilateral middle cerebral artery occlusion (MCAO) for 30 min as described (Kang et al., Endogenous CNTF mediates stroke-induced adult CNS neurogenesis in mice, Neurobiology of Disease 49: 68-78 (2013)). Reduced cortical blood flow was confirmed by Laser-Doppler Flowmetry and body temperature maintained during and after the MCAO. Two hours afterwards, ATR inhibitor VE-822 was injected i.p., and again at 24 and 48 h. One day before and at 3 and 7 days after MCAO, the mice were tested for impaired forepaw use in a glass cylinder test while rearing and the number of placement errors during grid walking. At 7 d mice were processed for histology of the brain as described (Kang et al., 2012, and Kang, et al., 2013), using various antibodies for cellular markers. Infarct size was determined by the area of lost cells in GFAP- and NeuN (neurons)-stained sections. Inflammatory cells were detected and identified with various antibodies and their death documented using an apoptosis detection kit and by nuclear staining."}, "[1]": {"system": "Dividing human neural SH-SY5Y cells", "assay": "LDH cytotoxicity assay, Ca2+ overload in dividing cells", "type": "cell-based", "conditions": "glutamate 100 uM, QA 1.0 mM or ionomycin 10 uM, VE-822 80 nM, 2 hrs", "description": "(§1) (A) Dividing human neural SH-SY5Y cells cultured in Dulbecco's modified Eagle's medium (DMEM) supplemented with 10% fetal bovine serum were treated with glutamate (100 uM), quinolinic acid (QA, 1.0 mM) or ionomycin (10 uM) in the presence and absence of ATR inhibitor VE-822 (ATRi, 80 nM) for 2 hours before cell death was measured using LDH cytotoxicity assay (LDH toxicity kit, Promega) following the vendor's procedures. (B)-(C) human ATR^+/+ and ATR^flox/− HCT116 cells and primary fibroblasts transfected with ATR siRNAs for 48 hrs were treated with ionomycin (10 uM) for the indicated periods before cell death was measured using standard trypan blue cytotoxicity assay. […] (E) Terminally differentiated non-dividing SH-SY5Y cells were treated with glutamate (100 uM), QA (1.0 mM) and ionomycin (1.0 uM)±VE-822 before cell death was measured using cytotoxicity assay. […] (G) Live cells (rounded morphology-white arrowheads) were counted in 5 fields per well. […]\n(§2) Dividing human neural SH-SY5Y cells were treated with glutamate (100 uM), quinolinic acid (QA) (1.0 mM) or ionomycin (10 uM)±ATR inhibitor VE-822 (ATRi) for 2 hrs before cell death was measured using LDH cytotoxicity assay. Human ATR^+/+ and ATR^flox/− HCT116 cells and primary fibroblasts±ATR siRNAs were treated with ionomycin (10 uM) for the indicated periods before cell death was measured using trypan blue cytotoxicity assay. […]"}, "myoblastic cells H9C2": {"system": "myoblastic cells H9C2", "assay": "hypoxia/reperfusion assay", "type": "cell-based, human", "conditions": "dividing myoblastic H9C2 cells ± VE-822; hypoxia/reperfusion incubator"}, "[2]": {"system": "Terminally differentiated non-dividing SH-SY5Y cells", "assay": "cytotoxicity assay, Ca2+ overload in non-dividing cells", "type": "cell-based, human", "conditions": "glutamate 100 uM, QA 1.0 mM, ionomycin 1.0 uM ± VE-822", "description": "as §1, §2"}, "Primary cortical neurons": {"system": "Primary cortical neurons", "assay": "NMDA excitotoxicity, live cell count", "type": "cell-based, mouse", "conditions": "1 h pretreatment, then 10 uM NMDA for 8 h; p≤0.01"}, "caspases": {"system": "caspases", "assay": "Western blot of activated (cleaved) caspases", "type": "cell-based, human", "from_the_text": "(§3) FIG. 4 reports data supporting the finding that necrosis is the form of cell death induced by Ca^2+ overload in dividing cells. (A) ATR^+/+ and ATR^flox/− cells were pre-treated with apoptosis inhibitor Z-VAD-FMK and then with ionomycin for cytotoxicity assay. […] As a control, camptothecin (CPT), a DNA double-strand break and typical apoptosis inducer, caused characteristic cell shrinkage and apoptotic bodies. […] (E) A549 cells were transfected with control, ATR, or ATM siRNAs for 72 hrs, then treated with ionomycin for 4 hrs. Treated cells were either analyzed by Western blot or trypan blue staining for determination of cell death. (*, p≤0.01).\n(§4) Cultured dividing ATR^+/+ and ATR^flox/− HCT116 cells were pre-treated with apoptosis inhibitor Z-VAD-FMK and then with ionomycin, followed by trypan blue cytotoxicity assay (FIG. 4A). […] As a control, CPT, a DNA double-strand break and typical apoptosis inducer, caused characteristic cell shrinkage and apoptotic bodies. […] FIG. 4E: Dividing A549 cells were transfected with control, ATR, or ATM siRNAs for 72 hrs, then treated with ionomycin for 4 hrs. Treated cells were either analyzed by Western blot or subjected to trypan blue staining for determination of cell death. (*, p≤0.01)."}, "[3]": {"system": "dividing ATR+/+ and ATRflox/- HCT116 cells", "assay": "morphologic analysis (phase-contrast microscopy) of form of cell death", "type": "cell-based, human", "from_the_text": "as §3, §4"}, "ATR binding to PARP1": {"system": "ATR binding to PARP1", "assay": "ATR co-immunoprecipitation and Western blot for PARP1 binding", "type": "cell-based, human", "conditions": "dividing A549 cells; ionomycin-treated vs control", "description": "(B) Dividing ATR^+/+ and ATR^flox/− cells were treated with ionomycin for the indicated periods. (C) Dividing A549 cells were treated with ionomycin, followed by subcellular fractionation and co-immunoprecipitation with ATR antibody and Western blot analysis for PARP1 binding.\nSince PARP hyperactivation is known to be the major cause of necrosis by Ca^2+ overload, the effects of ATR on PARsylation in dividing cells was investigated. […] ATR+/+ and ATRflox/− cells were treated with ionomycin for the indicated periods. A549 cells were treated with ionomycin, followed by fractionation and ATR co-IP and Western blot analysis for PARP1 binding."}, "[4]": {"system": "HCT116 and A549 cells and primary fibroblasts", "assay": "flow cytometric analysis of necrotic and apoptotic cells", "type": "cell-based, human", "conditions": "data not shown"}, "PARP": {"system": "PARP", "assay": "Western blot analysis of poly(ADP-ribose) (PAR) formation", "type": "cell-based, human", "conditions": "dividing A549 cells; ionomycin 10 uM"}, "[5]": {"system": "dividing ATR+/+ and ATRflox/- HCT116 cells", "assay": "trypan blue cytotoxicity assay with apoptosis inhibitor pretreatment", "type": "cell-based, human", "conditions": "pretreatment with Z-VAD-FMK, then ionomycin", "from_the_text": "as §3, §4"}, "[6]": {"system": "Terminally differentiated non-dividing SH-SY5Y cells", "assay": "MTT cytotoxicity (cell viability) assay", "type": "cell-based, human", "conditions": "Z-VAD-FMK combined with VE-822; glutamate", "description": "FIG. 3 depicts results of a cell viability assay (MTT) showing apoptosis is induced by Ca^2+ overload in terminally differentiated non-dividing SH-SY5Y cells but is reduced by ATR inhibition.\nStandard MTT cytotoxicity assay was carried out on terminally differentiated non-dividing SH-SY5Y cells treated with combinations of VE-822, Z-VAD-FMK, and glutamate. Cell differentiation: SH-SY5Y were grown to 60-70% confluency. Complete media was then replaced with 1% serum DMEM supplemented with freshly made all-trans retinoic acid dissolved in DMSO to a final in dish concentration of […]. This media was changed every two days following the same composition until day ten. At day ten the media was replaced with 1% serum DMEM with no further supplementation. A washout period of two days was allowed before any experiments were performed."}},
  "note": "“Also recorded” adds a separate entry of the source. Peptide text beside a SMILES is read from it. * marks the point of attachment. Cbz = O=C(OCc1ccccc1)*; CH2F = FC*",
  "data": [
    {"molecule": "N[C@@H](CCC(=O)O)C(=O)O", "note": "[glutamate]", "values": [
      {"measurement": "DNA damage signaling and AIF activation", "setting": "dividing SH-SY5Y cells", "value": "little/no"}
    ]},
    {"molecule": "CNCc1ccc(-c2cc(-c3nc(-c4ccc(S(=O)(=O)C(C)C)cc4)cnc3N)on2)cc1", "note": "[VE-822, 5-(4-(Isopropylsulfonyl)phenyl)-3-(3-(4-((methylamino)methyl)phenyl)isoxazol-5-yl)pyrazine-2-amine]", "values": [
      {"measurement": "pericyte morphology in the infarct", "setting": "C57BL/6 mice; 7 d after MCAO, VTN-identified pericytes", "value": "morphology consistent with necrosis"},
      {"measurement": "number of TUNEL-positive cells in the injury site", "setting": "C57BL/6 mice; 7 d after MCAO, cortex and striatum, vs vehicle", "value": "increased"},
      {"measurement": "number of neurons in the injury site (NeuN area)", "setting": "C57BL/6 mice; 7 d after MCAO, vs vehicle", "value": "increased; also recorded: greater"},
      {"measurement": "CD45-positive leukocytes in the injury site", "setting": "C57BL/6 mice; 7 d after MCAO, vs vehicle, p<0.01", "value": "fewer"},
      {"measurement": "infarct size", "setting": "C57BL/6 mice; 7 days after 30 min MCAO, i.p. at 2, 24 and 48 h, vs vehicle, p<0.05", "value": "smaller infarcts"},
      {"measurement": "neurological function, grid-walking", "setting": "C57BL/6 mice; MCAO mice, i.p. at 2, 24 and 48 h, vs mock-treated", "value": "improved neurological function"},
      {"measurement": "neurological function, affected paw use in cylinder test", "setting": "C57BL/6 mice; MCAO mice, i.p. at 2, 24 and 48 h, vs vehicle", "value": "improved neurological function"},
      {"measurement": "neurological function, affected paw use in cylinder test", "setting": "C57BL/6 mice; MCAO mice, i.p. at 2, 24 and 48 h, vs vehicle, listed as ATRi", "value": "increased to the near normal forelimb use index level"},
      {"measurement": "cell death caused by cellular Ca2+ overload inducers", "setting": "[1]", "value": "dramatically increased cell death"},
      {"measurement": "cell death", "setting": "myoblastic cells H9C2", "value": "Increased death"},
      {"measurement": "cell death (rescue)", "setting": "[2]", "value": "rescued"},
      {"measurement": "live cells after NMDA excitotoxicity", "setting": "Primary cortical neurons", "value": "rescued from NMDA excitotoxicity"}
    ]},
    {"molecule": "CC[C@@]1(O)C(=O)OCc2c1cc1n(c2=O)Cc2cc3ccccc3nc2-1", "note": "[CPT, camptothecin]", "values": [
      {"measurement": "caspase activation (Western blot)", "setting": "caspases", "value": "obvious"},
      {"measurement": "form of cell death by cell morphology", "setting": "[3]", "value": "efficiently induced apoptosis"}
    ]},
    {"molecule": "C[C@H](CCC(=O)O)C[C@H](C)C[C@H](C)C(=O)/C=C(\\O)[C@H](C)C[C@H](C)C/C=C/[C@@H](C)[C@@H](O)[C@@H](C)[C@@H](O)C[C@@H]1CC[C@@](C)([C@H]2CC[C@@](C)([C@@H](C)O)O2)O1", "note": "[ionomycin]", "values": [
      {"measurement": "caspase activation (Western blot)", "setting": "caspases", "value": "absence of caspase activation"},
      {"measurement": "ATR interaction with PARP1 (co-IP)", "setting": "ATR binding to PARP1", "value": "interacts with PARP1"},
      {"measurement": "DNA damage signaling and AIF activation", "setting": "dividing SH-SY5Y cells", "value": "little/no"},
      {"measurement": "form of cell death by cell morphology", "setting": "[3]", "value": "caused necrosis"},
      {"measurement": "form of cell death by flow cytometry", "setting": "[4]", "value": "necrotic cell death"},
      {"measurement": "PARP activity as formation of PAR polymers", "setting": "PARP", "value": "increased PARP activity"}
    ]},
    {"molecule": "COC(=O)C[C@H](NC(=O)[C@H](C)NC(=O)[C@@H](NC(=O)OCc1ccccc1)C(C)C)C(=O)CF", "note": "[Z-VAD-FMK] (Cbz-Val-Ala-Asp(OMe)-CH2F)", "values": [
      {"measurement": "cell death (trypan blue)", "setting": "[5]", "value": "had no effect on cell death"},
      {"measurement": "rescue from death (MTT), combination of apoptosis inhibitor and ATR inhibition", "setting": "[6]", "value": "do not have additive effects"}
    ]}
  ]
}
